Measurements published in ChEMBL document CHEMBL1157045, “Study of a cyclopamine glucuronide prodrug for the selective chemotherapy of glioblastoma” (Eur J Med Chem, 2010).
Active and inactive are the calls of the source. No cut-off for these calls is given here.

What was measured:
[1] = system: U-87MG ATCC; assay: Cytotoxicity against human U87 cells assessed as viability at 200 uM after 5 days by MTS assay; assay type: functional, cell-based
[2] = Cytotoxicity against human U87 cells assessed as viability in presence of beta glucuronidase; assay type: functional, cell-based, U-87MG ATCC; conditions: U-87 MG

SMILES	Activity [1]	IC50 [2] [µM]
CC1=C2C[C@H]3[C@@H](CC=C4C[C@@H](O)CC[C@@]43C)[C@@H]2CC[C@]12O[C@@H]1C[C@H](C)CN(C(=O)OCc3ccc(O[C@@H]4O[C@H](C(=O)O)[C@@H](O)[C@H](O)[C@H]4O)c([N+](=O)[O-])c3)[C@H]1[C@H]2C	inactive	21
CC1=C2C[C@H]3[C@@H](CC=C4C[C@@H](O)CC[C@@]43C)[C@@H]2CC[C@]12O[C@@H]1C[C@H](C)CN[C@H]1[C@H]2C [CYCLOPAMINE]		15.5
